Test results as given in ChEMBL document CHEMBL6114982, “Structural optimization and characterization of highly potent and selective STAT3 inhibitors for the treatment of triple negative breast cancer” (Eur J Med Chem, 2025).
Calls of active or inactive are those of the source. No cut-off for these calls is given here.

Key:
[1] = tested on: MDA-MB-231; assay: Induction of apoptosis in human MDA-MB-231 cells assessed as late apoptotic at 0.05 uM incubated for 48 hrs by Annexin V and PI staining based flow cytometry analysis (reference value: 2.71%); format: functional
[2] = tested on: BT-549; assay: Effect on STAT3 expression in human BT-549 cells at 0.1 microM measured after 8 to 48 hrs by Western blot analysis; format: functional, cell-based; conditions: time 8-48 hrs
[3] = tested on: MDA-MB-231; assay: Downregulation of N-cadherin expression level in human MDA-MB-231 cells by Western blot analysis; format: functional, cell-based
[4] = tested on: MDA-MB-231; assay: Effect on Akt phosphorylation level in human MDA-MB-231 cells at 0.05 to 0.5 uM measured after 48 hrs by Western blot analysis; format: functional, cell-based; conditions: dose 0.05-0.5 µM
[5] = tested on: MDA-MB-231; assay: Inhibition of colony formation in human MDA-MB-231 cells measured after 14 days by crystal violet staining based analysis; format: functional, cell-based; conditions: dose 0.1-0.5 µM, time 14.0 day
[6] = tested on: MDA-MB-231; assay: Effect on STAT5 phosphorylation level in human MDA-MB-231 cells at 0.05 to 0.5 uM measured after 48 hrs by Western blot analysis; format: functional, cell-based; conditions: dose 0.05-0.5 µM
[7] = tested on: BT-549; assay: Downregulation of CD44 expression in human BT-549 cells by Western blot analysis; format: functional, cell-based
[8] = biological target: T1, Signal transducer and activator of transcription 3 (Homo sapiens, UniProt P40763); assay: Inhibition of STAT3 phosphorylation in human MDA-MB-231 cells assessed as upregulation of UBE2S expression level; format: cell-based
[9] = biological target: T1, Signal transducer and activator of transcription 3; assay: Inhibition of STAT3 in human MDA-MB-231 cells assessed as downregulation of SPRY1 level; format: cell-based
[10] = biological target: T1, Signal transducer and activator of transcription 3; assay: Inhibition of STAT3 in human MDA-MB-231 cells assessed as downregulation of CCNB1 level; format: cell-based
[11] = biological target: Tyrosine-protein kinase JAK2 (Homo sapiens) (UniProt O60674); assay: Inhibition of JAK2 (unknown origin) at upto 10 uM
[12] = biological target: T1, Signal transducer and activator of transcription 3; assay: Inhibition of STAT3 phosphorylation at Tyr705 residue in human BT-549 cells measured after 8 to 48 hrs by Western blot analysis; format: cell-based; conditions: dose 0.1 µM, time 8-48 hrs
[13] = biological target: T1, Signal transducer and activator of transcription 3; assay: Inhibition of STAT3 phosphorylation in human MDA-MB-231 cells assessed as downregulation of KRT10 expression level; format: cell-based
[14] = tested on: MDA-MB-231; assay: Inhibition colony formation in human MDA-MB-231 cells harbouring STAT3 siRNA at 0.1 uM after 14 days by crystal violet staining based analysis; format: functional, cell-based; conditions: time 14.0 day
[15] = Toxicity in female BALB/c nude mouse assessed as change in body weight at 10 to 20 mg/kg, iv measured for 30 days; format: organism-based; conditions: in vivo, 720 h, dose 10-20 mg/kg, time 30 day
[16] = tested on: BT-549; assay: Downregulation of Bcl-2 level in human BT-549 cells measured after 48 hrs by Western blot analysis; format: functional, cell-based; conditions: dose 0.05-0.5 µM
[17] = tested on: BT-549; assay: Inhibition colony formation in human BT-549 cells harbouring STAT3 siRNA at 0.1 uM after 14 days by crystal violet staining based analysis; format: functional, cell-based; conditions: time 14.0 day
[18] = tested on: MDA-MB-231; assay: Induction of apoptosis in human MDA-MB-231 cells incubated for 48 hrs by Annexin V and PI staining based flow cytometry analysis; format: functional, cell-based; conditions: dose 0.05-0.5 µM
[19] = tested on: MDA-MB-231; assay: Inhibition of cell migration in human MDA-MB-231 cells assessed as reduction in wound closure proportion at 0.05 to 0.5 uM incubated for 24 hrs by inverted microscopic analysis; format: functional, cell-based; conditions: dose 0.05-0.5 µM
[20] = tested on: MDA-MB-231; assay: Effect on ERK12 phosphorylation level in human MDA-MB-231 cells at 0.05 to 0.5 uM measured after 48 hrs by Western blot analysis; format: functional, cell-based; conditions: dose 0.05-0.5 µM
[21] = tested on: BT-549; assay: Downregulation of STAT3 phosphorylation level in human BT-549 cells preincubated for 48 hrs followed by IL-6 addition and measured after 2 hrs by Western blot analysis; format: functional, cell-based; conditions: dose 0.05-0.5 µM, time 50.0 hrs
[22] = MRT in female BALB/c nude mouse administered as iv dose; format: ADME, organism-based; conditions: in vivo
[23] = biological target: T2, Tyrosine-protein kinase JAK3 (Homo sapiens) (UniProt P52333); assay: Inhibition of JAK3 (unknown origin) at upto 10 uM
T2 sequence (whole entry): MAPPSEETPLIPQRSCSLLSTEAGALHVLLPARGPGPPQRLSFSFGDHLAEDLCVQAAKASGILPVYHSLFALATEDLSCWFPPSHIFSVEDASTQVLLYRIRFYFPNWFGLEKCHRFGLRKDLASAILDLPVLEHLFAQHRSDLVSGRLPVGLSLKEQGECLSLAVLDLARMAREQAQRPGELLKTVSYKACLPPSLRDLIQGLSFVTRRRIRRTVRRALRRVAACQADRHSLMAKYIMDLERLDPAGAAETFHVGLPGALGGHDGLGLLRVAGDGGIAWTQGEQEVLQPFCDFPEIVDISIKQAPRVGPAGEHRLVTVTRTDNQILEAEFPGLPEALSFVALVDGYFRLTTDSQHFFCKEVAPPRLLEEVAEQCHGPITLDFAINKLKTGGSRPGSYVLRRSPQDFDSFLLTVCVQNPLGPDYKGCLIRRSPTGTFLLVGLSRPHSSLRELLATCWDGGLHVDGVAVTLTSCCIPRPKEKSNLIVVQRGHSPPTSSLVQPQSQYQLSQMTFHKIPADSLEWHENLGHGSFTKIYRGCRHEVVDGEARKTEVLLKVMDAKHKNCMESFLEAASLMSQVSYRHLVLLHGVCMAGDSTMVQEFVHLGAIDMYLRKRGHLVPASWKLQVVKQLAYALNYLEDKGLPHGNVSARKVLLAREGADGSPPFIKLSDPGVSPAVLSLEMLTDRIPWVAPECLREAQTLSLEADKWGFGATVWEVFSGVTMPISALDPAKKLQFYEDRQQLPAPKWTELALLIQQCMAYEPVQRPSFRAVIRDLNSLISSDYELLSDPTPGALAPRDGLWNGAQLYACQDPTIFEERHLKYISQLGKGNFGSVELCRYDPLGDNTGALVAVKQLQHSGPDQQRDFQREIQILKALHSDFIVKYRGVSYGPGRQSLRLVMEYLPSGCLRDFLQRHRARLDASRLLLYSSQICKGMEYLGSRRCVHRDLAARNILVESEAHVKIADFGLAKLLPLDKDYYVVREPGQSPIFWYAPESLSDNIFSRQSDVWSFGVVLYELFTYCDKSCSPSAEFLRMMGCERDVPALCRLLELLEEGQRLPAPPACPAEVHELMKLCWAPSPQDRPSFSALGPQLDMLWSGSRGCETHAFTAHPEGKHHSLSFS

[24] = tested on: MDA-MB-231; assay: Antitumor activity against human MDA-MB-231 cells xenografted in female nude BALB/c mouse model assessed as tumor growth inhibition at 20 mg/kg, ip administered every other day for 30 days relative to control; format: functional; conditions: MDA-MB-231, 720 h, time 30 day, read-out: TGI
[25] = tested on: MDA-MB-231; assay: Downregulation of MMP2 expression level in human MDA-MB-231 cells by Western blot analysis; format: functional, cell-based
[26] = tested on: BT-549; assay: Effect on ERK1/2 phosphorylation level in human BT-549 cells at 0.05 to 0.5 uM measured after 48 hrs by Western blot analysis; format: functional, cell-based; conditions: dose 0.05-0.5 µM
[27] = biological target: T1, Signal transducer and activator of transcription 3; assay: Inhibition of STAT3 phosphorylation in human MDA-MB-231 cells assessed as downregulation of TAGLN expression level; format: cell-based

T1 sequence (P40763 whole entry): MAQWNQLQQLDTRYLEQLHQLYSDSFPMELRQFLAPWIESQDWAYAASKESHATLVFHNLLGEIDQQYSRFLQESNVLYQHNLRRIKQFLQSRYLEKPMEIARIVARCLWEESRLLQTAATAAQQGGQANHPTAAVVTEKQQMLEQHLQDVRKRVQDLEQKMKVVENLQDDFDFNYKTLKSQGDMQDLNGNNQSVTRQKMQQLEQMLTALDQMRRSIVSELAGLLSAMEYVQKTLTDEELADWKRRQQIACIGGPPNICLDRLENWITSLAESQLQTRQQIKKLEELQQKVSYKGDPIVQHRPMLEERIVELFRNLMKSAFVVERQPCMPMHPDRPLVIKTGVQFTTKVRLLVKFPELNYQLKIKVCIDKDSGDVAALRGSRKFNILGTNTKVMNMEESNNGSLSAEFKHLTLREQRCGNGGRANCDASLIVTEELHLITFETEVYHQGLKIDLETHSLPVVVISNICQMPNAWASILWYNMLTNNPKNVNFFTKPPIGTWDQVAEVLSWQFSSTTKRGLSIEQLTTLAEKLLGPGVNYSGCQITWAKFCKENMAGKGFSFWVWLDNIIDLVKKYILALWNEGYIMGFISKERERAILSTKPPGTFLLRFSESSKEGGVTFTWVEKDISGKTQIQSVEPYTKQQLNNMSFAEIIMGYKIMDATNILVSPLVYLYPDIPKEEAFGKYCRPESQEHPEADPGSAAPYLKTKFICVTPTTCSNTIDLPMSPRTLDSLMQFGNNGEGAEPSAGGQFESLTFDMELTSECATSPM
Tyrosine-protein kinase JAK2 (Homo sapiens), sequence (O60674 whole entry): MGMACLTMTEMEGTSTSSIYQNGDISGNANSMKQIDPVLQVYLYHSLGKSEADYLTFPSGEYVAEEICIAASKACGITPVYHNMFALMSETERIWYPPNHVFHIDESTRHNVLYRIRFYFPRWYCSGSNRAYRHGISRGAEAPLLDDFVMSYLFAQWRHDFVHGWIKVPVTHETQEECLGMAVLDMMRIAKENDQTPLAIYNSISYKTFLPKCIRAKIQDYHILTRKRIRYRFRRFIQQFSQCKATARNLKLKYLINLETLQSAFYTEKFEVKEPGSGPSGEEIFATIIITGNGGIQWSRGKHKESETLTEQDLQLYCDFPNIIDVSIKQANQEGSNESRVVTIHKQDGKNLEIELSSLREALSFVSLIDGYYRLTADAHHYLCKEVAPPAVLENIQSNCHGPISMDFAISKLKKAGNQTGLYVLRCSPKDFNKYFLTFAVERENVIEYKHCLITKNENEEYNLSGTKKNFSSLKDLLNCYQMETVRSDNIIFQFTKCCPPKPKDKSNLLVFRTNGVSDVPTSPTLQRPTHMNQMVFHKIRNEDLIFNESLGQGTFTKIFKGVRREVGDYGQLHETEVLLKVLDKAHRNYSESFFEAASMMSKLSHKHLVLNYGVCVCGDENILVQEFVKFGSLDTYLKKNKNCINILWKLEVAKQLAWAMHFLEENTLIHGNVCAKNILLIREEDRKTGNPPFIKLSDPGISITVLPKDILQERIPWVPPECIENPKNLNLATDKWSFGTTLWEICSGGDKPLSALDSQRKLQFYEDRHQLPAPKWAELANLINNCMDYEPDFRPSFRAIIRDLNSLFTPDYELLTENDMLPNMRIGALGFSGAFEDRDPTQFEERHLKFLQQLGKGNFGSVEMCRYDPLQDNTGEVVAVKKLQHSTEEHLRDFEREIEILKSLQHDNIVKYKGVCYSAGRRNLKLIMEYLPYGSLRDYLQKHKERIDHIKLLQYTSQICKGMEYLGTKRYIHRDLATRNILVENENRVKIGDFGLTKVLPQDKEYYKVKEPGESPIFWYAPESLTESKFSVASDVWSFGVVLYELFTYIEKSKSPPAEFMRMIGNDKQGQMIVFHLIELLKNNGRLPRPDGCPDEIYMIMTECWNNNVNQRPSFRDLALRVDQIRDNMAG

- inhibition [8]: Active
- inhibition [9]: Active
- inhibition [10]: Active
- inhibition [12]: Dose-dependent-effect
- inhibition [13]: Active
- MRT [22]: 10 h
- inhibition [27]: Active
SMILES: COc1cccc(C(=O)Nc2sc3c(c2C#N)CCN(C(=O)Nc2ccccc2OC)C3)c1
- Activity [1]: 12.78%
- Activity [2]: Active; Compound Showed Little Impact On Stat3 Expression
- Activity [3]: Active
- Activity [4]: inactive
- inhibition [5]: Dose-dependent-effect
- Activity [6]: inactive
- Activity [7]: Active
- inhibition [11]: Active; Compound Showed Little Inhibitory Effect
- inhibition [14]: inactive
- Activity [15]: Toxic
- Activity [16]: Dose-dependent-effect
- inhibition [17]: inactive
- Activity [18]: Dose-dependent-effect
- inhibition [19]: Active
- Activity [20]: inactive
- Activity [21]: Dose-dependent-effect
- inhibition [23]: Active; Compound Showed Little Inhibitory Effect
- inhibition in vivo at 20 mg/kg [24]: 58%
- Activity [25]: Active
- Activity [26]: inactive
